One data set has as its target T1, PPARδ-RXRα heterodimer (Homo sapiens, UniProt Q03181).
T1 construct: expressed in transfected cells; host or cells: COS-1
T1 sequence (Q03181 1-441): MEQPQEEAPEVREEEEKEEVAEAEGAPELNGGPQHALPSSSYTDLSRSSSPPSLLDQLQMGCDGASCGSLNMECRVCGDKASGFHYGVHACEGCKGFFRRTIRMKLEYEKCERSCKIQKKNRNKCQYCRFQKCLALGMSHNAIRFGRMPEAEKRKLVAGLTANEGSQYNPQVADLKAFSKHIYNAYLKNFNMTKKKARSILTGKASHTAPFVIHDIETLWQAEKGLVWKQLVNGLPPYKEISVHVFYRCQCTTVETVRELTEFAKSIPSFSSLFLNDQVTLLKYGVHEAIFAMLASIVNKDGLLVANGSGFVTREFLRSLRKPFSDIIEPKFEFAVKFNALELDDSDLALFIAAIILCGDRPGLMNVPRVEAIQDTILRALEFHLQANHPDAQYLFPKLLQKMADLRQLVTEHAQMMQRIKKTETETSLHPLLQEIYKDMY
T1 sequence (P19793 1-462 partner): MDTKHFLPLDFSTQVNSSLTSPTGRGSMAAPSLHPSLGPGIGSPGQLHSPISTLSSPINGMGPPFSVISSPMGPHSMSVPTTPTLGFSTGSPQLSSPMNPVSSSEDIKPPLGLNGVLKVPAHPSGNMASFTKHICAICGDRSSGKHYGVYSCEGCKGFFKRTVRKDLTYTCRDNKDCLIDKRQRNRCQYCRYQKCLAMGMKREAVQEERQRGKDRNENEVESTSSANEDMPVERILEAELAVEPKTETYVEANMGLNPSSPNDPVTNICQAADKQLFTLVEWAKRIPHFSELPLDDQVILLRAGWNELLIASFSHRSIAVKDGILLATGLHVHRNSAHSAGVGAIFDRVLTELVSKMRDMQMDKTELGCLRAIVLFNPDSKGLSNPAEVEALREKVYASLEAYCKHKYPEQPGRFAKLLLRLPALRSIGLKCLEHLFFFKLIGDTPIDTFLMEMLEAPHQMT
In words: PPARδ-RXRα heterodimer ligand activity, luciferase reporter in COS-1 transformant (Test Example 4). The class given is cell-based. The settings on record: COS-1 transformant (hPPARδ, hRXRα, reporter), 36-48 hours, concentration for 50% of the maximum fold induction. The gist of the method: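 COS-1 cells transiently co-transfected with human PPARδ, human RXRα, PPRE-luciferase reporter and pRL-tk, then exposed to compound 36-48 h at 37 °C in DMEM with 0.1% fatty acid-free BSA. Luciferase read as fold induction over untreated; EC50 at 50% of maximal fold induction.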

Each structure is given as a SMILES string.

The term melting point denotes the temperature, or range, at which the solid turns liquid. Usually EC50 stands for the concentration needed to bring the measured effect to its halfway point. High values mean a need for much substance, low ones an effect from little substance. The compound `COc1cccc(CC(=O)O)c1OCCCc1cn(-c2ccc(C(F)(F)F)nn2)nc1C(C)C` [Example 274, [2-(3-{3-isopropyl-1-[6-(trifluoromethyl)pyridazin-3-yl]-1H-pyrazol-4-yl}propoxy)-3-methoxyphenyl]acetic acid] returned a melting point of 92 to 93 °C. Besides, at PPARδ-RXRα heterodimer, the EC50 stood at 0.32 µM.
As to `Cc1cccc(CC(=O)O)c1OCCCc1cn(-c2ccc(C(F)(F)F)nn2)nc1C(C)(C)C` [Example 367, [2-(3-{3-tert-butyl-1-[6-(trifluoromethyl)pyridazin-3-yl]-1H-pyrazol-4-yl}propoxy)-3-methylphenyl]acetic acid], the melting point is 96 to 97 °C. For the same compound, on PPARδ-RXRα heterodimer, a half-maximal response (EC50) required 0.15 µM.
The matching figures for `CCOc1nn(-c2ccc(C(F)(F)F)cn2)cc1CCCCOc1cc(CCC(=O)O)n(-c2ccccc2)n1` [Example 104, 3-[3-(4-{3-ethoxy-1-[5-(trifluoromethyl)-2-pyridinyl]-1H-pyrazol-4-yl}butoxy)-1-phenyl-1H-pyrazol-5-yl]propanoic acid]: 138 to 139 °C and 0.007 µM.
The matching figures for `COc1cccc(CC(=O)O)c1OCCCc1cn(-c2ccc(C(F)(F)F)cn2)nc1C(C)C` [Example 181, [2-(3-{3-isopropyl-1-[5-(trifluoromethyl)-2-pyridyl]-1H-pyrazol-4-yl}propoxy)-3-methoxyphenyl]acetic acid]: 142 to 143 °C and 0.084 µM.
Take `CC(C)c1nn(-c2ccc(C(F)(F)F)cn2)cc1CCCOc1cc(CCC(=O)O)n(-c2ccccc2)n1` [Example 24, 3-[3-(3-{3-isopropyl-1-[5-(trifluoromethyl)-2-pyridyl]-1H-pyrazol-4-yl}propoxy)-1-phenyl-1H-pyrazol-5-yl]propionic acid]: the melting point lay within 139 to 140 °C. For the same compound, at PPARδ-RXRα heterodimer, the EC50 stood at 0.0093 µM.

For the origin of these results see US20060148858A1, “1, 2-Azole derivatives with hypoglycemic and hypolipidemic activity” (priority 2002, published 2006).
